Laboratory results as given in ChEMBL document CHEMBL5291721, “A preclinical secondary pharmacology resource illuminates target-adverse drug reaction associations of marketed drugs” (Nat Commun, 2023).

Key:
[1] = biological target: Muscarinic acetylcholine receptor M3 (Homo sapiens, UniProt P20309)
[2] = biological target: T1, Peroxisome proliferator-activated receptor gamma (Homo sapiens, UniProt P37231); format: functional
T1 sequence (P37231 whole entry): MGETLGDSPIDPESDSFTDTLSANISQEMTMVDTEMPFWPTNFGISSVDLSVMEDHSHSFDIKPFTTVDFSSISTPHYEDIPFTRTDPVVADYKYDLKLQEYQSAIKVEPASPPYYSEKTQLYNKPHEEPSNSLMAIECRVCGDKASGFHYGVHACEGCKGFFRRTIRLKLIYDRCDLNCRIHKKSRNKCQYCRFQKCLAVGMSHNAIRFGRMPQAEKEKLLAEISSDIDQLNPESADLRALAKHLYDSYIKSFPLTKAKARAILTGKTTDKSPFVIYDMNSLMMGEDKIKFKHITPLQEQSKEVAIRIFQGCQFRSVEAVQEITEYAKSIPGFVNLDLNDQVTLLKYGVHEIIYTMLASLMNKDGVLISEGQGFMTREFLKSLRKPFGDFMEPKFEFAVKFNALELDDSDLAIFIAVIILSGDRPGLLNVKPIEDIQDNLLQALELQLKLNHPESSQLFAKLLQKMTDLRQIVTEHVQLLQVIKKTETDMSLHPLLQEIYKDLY

[3] = biological target: Gamma-aminobutyric acid receptor subunit alpha-1/alpha-2/beta-2/gamma-2 (Homo sapiens, UniProt P14867+P18507+P47869+P47870); format: functional, cell-based
Chain of Gamma-aminobutyric acid receptor subunit alpha-1/alpha-2/beta-2/gamma-2 (P14867 whole entry): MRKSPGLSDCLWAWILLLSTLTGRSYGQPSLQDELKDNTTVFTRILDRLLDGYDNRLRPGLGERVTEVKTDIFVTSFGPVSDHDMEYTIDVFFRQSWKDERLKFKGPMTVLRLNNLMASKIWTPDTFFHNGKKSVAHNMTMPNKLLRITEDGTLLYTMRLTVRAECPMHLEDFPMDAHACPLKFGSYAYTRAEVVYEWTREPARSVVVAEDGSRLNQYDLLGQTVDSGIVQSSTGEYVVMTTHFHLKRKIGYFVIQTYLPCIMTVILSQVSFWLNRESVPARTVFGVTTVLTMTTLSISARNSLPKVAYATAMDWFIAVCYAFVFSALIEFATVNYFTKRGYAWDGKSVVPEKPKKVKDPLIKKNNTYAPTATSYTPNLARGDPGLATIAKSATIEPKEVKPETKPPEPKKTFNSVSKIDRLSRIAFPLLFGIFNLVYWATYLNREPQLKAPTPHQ
Chain of Gamma-aminobutyric acid receptor subunit alpha-1/alpha-2/beta-2/gamma-2 (P47870 whole entry): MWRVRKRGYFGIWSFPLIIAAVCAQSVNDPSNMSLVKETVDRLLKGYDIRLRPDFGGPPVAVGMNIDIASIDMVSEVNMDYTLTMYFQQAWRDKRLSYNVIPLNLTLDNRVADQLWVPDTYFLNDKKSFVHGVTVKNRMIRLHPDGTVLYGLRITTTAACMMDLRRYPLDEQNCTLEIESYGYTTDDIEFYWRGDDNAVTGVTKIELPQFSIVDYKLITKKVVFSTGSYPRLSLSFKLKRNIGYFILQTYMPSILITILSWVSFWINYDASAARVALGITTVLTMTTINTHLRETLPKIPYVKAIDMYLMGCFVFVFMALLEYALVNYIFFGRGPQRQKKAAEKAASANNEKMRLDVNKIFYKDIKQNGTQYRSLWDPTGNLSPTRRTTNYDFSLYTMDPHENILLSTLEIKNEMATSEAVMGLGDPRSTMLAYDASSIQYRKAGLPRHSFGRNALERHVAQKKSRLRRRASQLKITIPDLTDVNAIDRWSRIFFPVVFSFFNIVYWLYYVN
Chain of Gamma-aminobutyric acid receptor subunit alpha-1/alpha-2/beta-2/gamma-2 (P18507 whole entry): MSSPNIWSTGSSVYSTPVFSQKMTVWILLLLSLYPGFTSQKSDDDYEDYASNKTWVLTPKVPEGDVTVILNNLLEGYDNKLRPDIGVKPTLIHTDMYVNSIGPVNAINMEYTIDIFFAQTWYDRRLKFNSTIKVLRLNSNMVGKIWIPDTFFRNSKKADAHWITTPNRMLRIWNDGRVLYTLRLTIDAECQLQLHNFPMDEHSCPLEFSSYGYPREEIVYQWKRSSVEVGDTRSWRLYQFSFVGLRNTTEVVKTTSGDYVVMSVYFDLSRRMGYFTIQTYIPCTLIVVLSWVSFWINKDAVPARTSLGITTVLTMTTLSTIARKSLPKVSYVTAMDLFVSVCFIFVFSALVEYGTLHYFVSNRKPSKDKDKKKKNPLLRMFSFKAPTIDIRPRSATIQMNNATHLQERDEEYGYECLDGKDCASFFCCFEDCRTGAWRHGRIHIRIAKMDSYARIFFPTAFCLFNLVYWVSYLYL
Chain of Gamma-aminobutyric acid receptor subunit alpha-1/alpha-2/beta-2/gamma-2 (P47869 whole entry): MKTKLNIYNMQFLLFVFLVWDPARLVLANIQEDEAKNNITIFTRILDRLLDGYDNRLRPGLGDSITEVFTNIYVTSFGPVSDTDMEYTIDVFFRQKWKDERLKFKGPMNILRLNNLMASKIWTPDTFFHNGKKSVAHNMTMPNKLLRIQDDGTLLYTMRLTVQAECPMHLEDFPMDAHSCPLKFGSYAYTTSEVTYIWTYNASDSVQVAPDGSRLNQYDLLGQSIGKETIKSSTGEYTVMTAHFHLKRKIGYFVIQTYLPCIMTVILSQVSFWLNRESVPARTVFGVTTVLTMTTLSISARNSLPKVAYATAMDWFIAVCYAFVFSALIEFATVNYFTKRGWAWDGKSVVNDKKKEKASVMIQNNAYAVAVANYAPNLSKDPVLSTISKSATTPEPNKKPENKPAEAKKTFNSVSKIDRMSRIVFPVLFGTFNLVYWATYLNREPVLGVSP

Glucocorticoid receptor = biological target: T2, Glucocorticoid receptor (Homo sapiens, UniProt P04150); format: functional
T2 sequence (P04150 whole entry): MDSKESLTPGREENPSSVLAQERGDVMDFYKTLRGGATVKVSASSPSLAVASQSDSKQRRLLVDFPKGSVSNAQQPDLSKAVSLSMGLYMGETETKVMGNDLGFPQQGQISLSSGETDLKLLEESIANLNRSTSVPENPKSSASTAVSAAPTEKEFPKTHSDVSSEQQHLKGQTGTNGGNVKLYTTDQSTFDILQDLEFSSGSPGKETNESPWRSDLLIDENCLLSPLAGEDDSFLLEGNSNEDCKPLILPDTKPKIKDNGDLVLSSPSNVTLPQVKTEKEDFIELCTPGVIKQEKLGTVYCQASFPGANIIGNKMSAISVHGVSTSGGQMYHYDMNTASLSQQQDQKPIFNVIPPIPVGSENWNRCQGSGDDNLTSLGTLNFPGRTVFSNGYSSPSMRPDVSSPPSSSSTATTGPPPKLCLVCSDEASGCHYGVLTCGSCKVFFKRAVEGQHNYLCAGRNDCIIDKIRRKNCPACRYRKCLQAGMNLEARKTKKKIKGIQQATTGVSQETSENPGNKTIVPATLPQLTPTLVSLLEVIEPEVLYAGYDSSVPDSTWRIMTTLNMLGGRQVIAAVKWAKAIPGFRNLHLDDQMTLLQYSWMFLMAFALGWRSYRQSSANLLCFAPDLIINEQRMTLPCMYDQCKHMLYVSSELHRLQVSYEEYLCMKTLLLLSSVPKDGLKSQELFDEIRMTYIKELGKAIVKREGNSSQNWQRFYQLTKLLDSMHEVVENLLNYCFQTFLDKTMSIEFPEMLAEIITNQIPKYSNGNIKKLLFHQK

[4] = biological target: T1, Peroxisome proliferator-activated receptor gamma; format: functional; remark: listed apart in the source
Estrogen receptor = biological target: T3, Estrogen receptor (Homo sapiens, UniProt P03372)
T3 sequence (P03372 whole entry): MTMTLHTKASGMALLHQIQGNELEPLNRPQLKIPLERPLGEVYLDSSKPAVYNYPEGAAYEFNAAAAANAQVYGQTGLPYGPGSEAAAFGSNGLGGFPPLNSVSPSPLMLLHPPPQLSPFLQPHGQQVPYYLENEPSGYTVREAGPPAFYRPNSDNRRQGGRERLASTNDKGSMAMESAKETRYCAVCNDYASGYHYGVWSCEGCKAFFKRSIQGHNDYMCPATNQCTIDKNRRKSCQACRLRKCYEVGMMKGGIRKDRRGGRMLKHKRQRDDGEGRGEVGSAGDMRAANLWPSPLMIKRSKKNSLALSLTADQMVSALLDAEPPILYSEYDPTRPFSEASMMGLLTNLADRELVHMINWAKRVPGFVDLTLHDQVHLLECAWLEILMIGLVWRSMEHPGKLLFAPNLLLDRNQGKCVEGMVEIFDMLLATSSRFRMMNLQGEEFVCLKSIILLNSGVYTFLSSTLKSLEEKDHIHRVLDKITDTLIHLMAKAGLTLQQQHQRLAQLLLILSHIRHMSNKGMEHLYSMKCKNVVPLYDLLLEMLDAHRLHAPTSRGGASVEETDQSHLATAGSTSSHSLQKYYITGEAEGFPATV

[5] = biological target: T4, Corticotropin-releasing factor receptor 2 (Homo sapiens, UniProt Q13324)
T4 sequence (Q13324 whole entry): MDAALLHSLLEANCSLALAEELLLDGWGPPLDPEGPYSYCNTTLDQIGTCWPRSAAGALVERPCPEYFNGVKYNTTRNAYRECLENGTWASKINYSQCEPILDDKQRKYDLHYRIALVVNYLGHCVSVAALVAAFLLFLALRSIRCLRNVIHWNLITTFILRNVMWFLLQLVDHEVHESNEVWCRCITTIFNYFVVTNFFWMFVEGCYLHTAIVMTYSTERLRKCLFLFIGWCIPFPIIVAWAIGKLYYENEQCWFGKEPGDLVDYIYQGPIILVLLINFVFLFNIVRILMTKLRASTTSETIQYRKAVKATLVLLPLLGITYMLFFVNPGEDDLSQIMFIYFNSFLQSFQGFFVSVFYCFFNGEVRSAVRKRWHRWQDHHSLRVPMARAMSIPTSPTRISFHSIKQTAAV

B1 bradykinin receptor = biological target: T5, B1 bradykinin receptor (Homo sapiens, UniProt P46663)
T5 sequence (P46663 whole entry): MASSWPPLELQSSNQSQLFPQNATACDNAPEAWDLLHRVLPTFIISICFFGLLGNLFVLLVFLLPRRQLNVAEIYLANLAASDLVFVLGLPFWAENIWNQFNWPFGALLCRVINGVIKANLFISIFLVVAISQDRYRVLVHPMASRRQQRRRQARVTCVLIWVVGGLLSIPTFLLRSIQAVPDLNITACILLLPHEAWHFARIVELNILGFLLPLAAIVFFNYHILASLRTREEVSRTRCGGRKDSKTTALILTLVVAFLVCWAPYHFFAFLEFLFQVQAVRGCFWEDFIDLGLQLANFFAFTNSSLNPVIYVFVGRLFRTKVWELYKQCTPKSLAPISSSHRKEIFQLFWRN
Note: assay procedure not described here.

Chain of Muscarinic acetylcholine receptor M3 (P20309 whole entry): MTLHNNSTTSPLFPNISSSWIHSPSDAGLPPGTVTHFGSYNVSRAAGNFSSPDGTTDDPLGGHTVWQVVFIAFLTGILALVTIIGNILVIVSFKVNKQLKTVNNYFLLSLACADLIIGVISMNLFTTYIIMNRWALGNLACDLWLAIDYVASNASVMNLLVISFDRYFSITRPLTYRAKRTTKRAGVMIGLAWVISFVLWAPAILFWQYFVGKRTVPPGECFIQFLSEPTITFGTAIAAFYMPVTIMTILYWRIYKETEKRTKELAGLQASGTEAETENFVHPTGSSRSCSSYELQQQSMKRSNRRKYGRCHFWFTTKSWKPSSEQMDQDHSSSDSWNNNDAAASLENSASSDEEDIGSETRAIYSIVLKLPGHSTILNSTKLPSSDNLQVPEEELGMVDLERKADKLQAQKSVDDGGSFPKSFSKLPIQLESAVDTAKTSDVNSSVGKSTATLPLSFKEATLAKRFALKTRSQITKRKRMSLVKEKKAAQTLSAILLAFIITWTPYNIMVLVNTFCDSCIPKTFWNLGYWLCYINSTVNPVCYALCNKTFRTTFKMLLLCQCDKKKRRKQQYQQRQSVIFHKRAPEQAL

Row | SMILES | AC50 [1] [µM] | AC50 [2] [µM] | AC50 [3] [µM] | AC50 (Glucocorticoid receptor) [µM] | AC50 [4] [µM] | AC50 (Estrogen receptor) [µM] | AC50 [5] [µM] | AC50 (B1 bradykinin receptor) [µM]
1 | CC(=N)N1CC[C@H](SC2=C(C(=O)O)N3C(=O)[C@H]([C@@H](C)O)[C@H]3C2)C1 | 290 | > 300 | > 800 | > 300 | > 300 | – | – | –
2 | CCc1oc2ccccc2c1C(=O)c1cc(Br)c(O)c(Br)c1 [BENZBROMARONE] | – | – | > 30 | > 30 | – | > 30 | – | –
3 | C=C(C)[C@@H]1CCC(C)=C[C@H]1c1c(O)cc(CCCCC)cc1O [CANNABIDIOL] | > 30 | – | – | > 30 | – | – | – | –
4 | CO/N=C(\C(=O)N[C@@H]1C(=O)N2C(C(=O)O)=C(COC(N)=O)CS[C@H]12)c1ccco1 [CEFUROXIME] | > 30 | > 30 | > 30 | – | > 30 | – | – | –
5 | COC(=O)[C@H](c1ccccc1Cl)N1CCc2sccc2C1 [CLOPIDOGREL] | – | > 30 | > 30 | > 30 | > 30 | > 30 | > 30 | > 30
6 | C#Cc1cccc(Nc2ncnc3cc(OCCOC)c(OCCOC)cc23)c1 [ERLOTINIB] | > 30 | > 30 | > 30 | > 30 | > 30 | – | – | –
7 | CC1(C)O[C@@H]2C[C@H]3[C@@H]4C[C@H](F)C5=CC(=O)C=C[C@]5(C)[C@H]4[C@@H](O)C[C@]3(C)[C@]2(C(=O)CO)O1 [FLUNISOLIDE] | – | > 30 | > 30 | 0.021 | > 30 | – | – | –
8 | C[C@H]1Oc2cc(cnc2N)-c2c(nn(C)c2C#N)CN(C)C(=O)c2ccc(F)cc21 [LORLATINIB] | > 30 | > 30 | > 30 | > 30 | > 30 | – | – | –
9 | CN(C)c1cc(CNCC(C)(C)C)c(O)c2c1C[C@H]1C[C@H]3[C@H](N(C)C)C(O)=C(C(N)=O)C(=O)[C@@]3(O)C(O)=C1C2=O [OMADACYCLINE] | > 30 | > 30 | > 30 | – | > 30 | > 30 | – | –
10 | O=C1NC(=O)C(c2ccccc2)(c2ccccc2)N1 [PHENYTOIN] | – | > 30 | – | > 30 | > 30 | – | > 30 | > 30
11 | CC(C)C[C@H](CN)CC(=O)O [PREGABALIN] | > 30 | > 30 | > 30 | > 30 | > 30 | > 30 | > 30 | > 30
12 | CNC(=O)c1cc(Oc2ccc(NC(=O)Nc3ccc(Cl)c(C(F)(F)F)c3)c(F)c2)ccn1 [REGORAFENIB] | – | – | – | > 30 | – | – | – | –
13 | CCOc1cc(CC(=O)N[C@@H](CC(C)C)c2ccccc2N2CCCCC2)ccc1C(=O)O [REPAGLINIDE] | > 30 | > 30 | > 30 | > 30 | > 30 | – | – | –
14 | CCCN(CCC)CCc1cccc2c1CC(=O)N2 [ROPINIROLE] | > 30 | > 30 | > 30 | > 30 | > 30 | – | > 30 | > 30
15 | CCCN(CCc1cccs1)[C@H]1CCc2c(O)cccc2C1 [ROTIGOTINE] | > 30 | > 30 | > 30 | > 30 | > 30 | – | – | –
16 | CC[C@H]1OC(=O)[C@H](C)[C@@H](O[C@H]2C[C@@](C)(OC)[C@@H](O)[C@H](C)O2)[C@H](C)[C@@H](O[C@@H]2O[C@H](C)C[C@H](N(C)C)[C@H]2O)[C@](C)(O)C[C@@H](C)/C(=N\OCOCCOC)[C@H](C)[C@@H](O)[C@]1(C)O [ROXITHROMYCIN] | – | > 30 | > 30 | > 30 | > 30 | – | – | –
17 | CC(=O)S[C@@H]1CC2=CC(=O)CC[C@]2(C)[C@H]2CC[C@@]3(C)[C@@H](CC[C@@]34CCC(=O)O4)[C@H]12 [SPIRONOLACTONE] | – | > 30 | > 30 | 5.5 | > 30 | > 30 | > 30 | > 30
